Measured values published in patent US11186873B2, “Combination method for treating cancer by targeting immunoglobulin superfamily member 1 (IGSF1) and mesenchymal-epithelial transition factor (MET)” (WELLMARKER BIO CO., LTD., priority 2014, dated 2021).

How the values were obtained:
[1] = tested on: gastric cancer cell lines SNU638 and MKN45; test: Apoptosis by MET inhibitor, trypan blue exclusion, gastric cancer cells; assay type: cell-based, human
cleaved caspase 3 = test: Expression of cleaved caspase 3 after MET inhibitor treatment; assay type: cell-based, human; conditions: treatment at each concentration; SNU638 and MKN45
phosphorylation of MET = test: Western blot of MET phosphorylation after inhibiting IGSF1 by siRNA/shRNA; assay type: cell-based, human; conditions: AGS, MKN45, SNU638 and HCC827, concentration-dependent manner, FIG. 2E
Procedure: (§1) To perform Western blot analysis, proteins isolated from the respective cells were separated by SDS-PAGE and transferred to membranes (PolyScreen membranes; New England Nuclear, Boston, Mass., USA). The proteins were incubated with various antibodies (anti-phospho MET, E-cadherin (Cell signaling Technology, Beverly, Mass., USA), anti-MET, anti-r-tubulin (Santa Cruz Biotechnology, Santa Cruz, Calif., USA), anti-IGSF1 (Abnova, Jhouzih, Taipei, Taiwan)) at 4° C. for 12 hours and then washed with 1× TBS-T buffer three times for 10 minutes. The proteins were incubated with appropriate anti-rabbit-HRP or anti-mouse-HRP secondary antibody at room temperature for 2 hours and washed with 1× TBS-T buffer three times for 10 minutes, and then the expression of the proteins was detected using ECL solution (GE Healthcare Bio-Sciences Corp.). […]
(§2) To analyze the changes in MET phosphorylation by inhibition of the expression of IGSF1 as a marker for the induction of HGF-independent MET phosphorylation in human gastric cancer cell line (AGS, MKN45, SNU638) and lung cancer cell line (HCC827), the present inventors inhibited the expression of IGSF1 or MET by the siRNA method and then determined the changes in phosphorylation of the MET protein by western blot analysis.

[2] = tested on: human lung cancer cell lines HCC827 and HCC194; test: Cell growth (cell counting) after shRNA, lung cancer cells; assay type: cell-based; conditions: number of cells at 24 hours and 48 hours, shRNA method
Description: The present inventors inhibited the expression of IGSF1 or the expression of MET by the shRNA method in human lung cancer cell lines HCC827 and HCC194 and then determined the inhibition of cell growth.

[3] = tested on: human gastric cancer cell lines SNU638 and MKN45; test: Cell growth (cell counting) after shRNA, gastric cancer cells; assay type: cell-based; conditions: number of cells counted for 3 days, shRNA method
Description: The present inventors inhibited the expression of IGSF1 or MET by the shRNA method in human gastric cancer cell lines SNU638 and MKN45 and then determined the inhibition of cell growth.

MET [4] = test: Real-time PCR of MET expression after shRNA inhibition of IGSF1; assay type: cell-based, human; conditions: RNA level, SNU638 and MKN45, inhibition of IGSF1 by shRNA method
Description: (§3) The present inventors inhibited the expression of IGSF1 or MET by the shRNA method in human gastric cancer cell lines SNU638 and MKN45 and then determined the changes in expression of each gene by real-time PCR.

[5] = tested on: human gastric cancer cell lines SNU638 and MKN45; test: Colony forming assay after inhibition of IGSF1 or MET; assay type: cell-based
Procedure: Moreover, the expression of IGSF1 or MET in human gastric cancer cell lines SNU638 and MKN45 was inhibited, and then the degree of the inhibition of cell growth was determined by colony forming assay.

IGSF1 [6] = test: Western blot of IGSF1 expression after MET shRNA; assay type: cell-based, human; conditions: MET shRNA concentration-dependent manner, FIG. 2E
Procedure: as §1, §2

IGSF1 [7] = test: Real-time PCR of IGSF1 expression after shRNA inhibition of MET; assay type: cell-based, human; conditions: RNA level, SNU638 and MKN45, inhibition of MET by shRNA method
Description: as §3

[8] = tested on: human gastric cancer cell lines SNU638 and MKN45; test: Wound healing / migration assay after siRNA, gastric cancer cells; assay type: cell-based; conditions: siRNA method
Procedure: (§4) HGF-independent human gastric cancer cell lines MKN45 and SNU638 and lung cancer cell line HCC827 were transfected with IGSF1 siRNA or MET siRNA for 48 hours. Plate inserts (BD Biosciences) of […] pore size were placed in a 24-well plate, and each 100 μl of matrigel (BD Biosciences) was seeded on each at a concentration of 200 μg/ml and incubated in a CO2 incubator for 30 minutes. 2.5×10^4 cells transfected with MET or IGSF1 siRNA were placed in the insert plate in a total volume of 100 μl in serum-free media. 400 μl of growth media (RPMI1640+10% FBS) were seeded on the bottom plate and cultured in a CO2 incubator for 24 hours. After 24 hours, the insert plate was washed with PBS, and the remaining cells were wiped with a cotton swab and fixed in 10% formalin for 20 minutes. After washing with purified water, the cells were stained with 0.01% crystal violet solution for 20 minutes and washed with warm water, and then the number of migrated cells was counted. […] The number of cells migrated through the insert plate in the control and the gastric cancer and lung cancer cell lines transfected with MET or IGSF1 siRNA was counted and verified.
(§5) The present inventors inhibited the expression of IGSF1 by the siRNA method in human gastric cancer cell lines SNU638 and MKN45 and then analyzed the degree of the inhibition of invasion and migration by invasion chamber assay and wound healing assay.

[9] = tested on: human gastric cancer cell lines SNU638 and MKN45; test: Invasion chamber assay after siRNA, gastric cancer cells; assay type: cell-based; conditions: siRNA method
Procedure: as §4, §5

[10] = tested on: human gastric cancer cell line SNU638; test: Cell growth after miRNA transfection, trypan blue exclusion; assay type: cell-based; conditions: 300 nM, compared with the control group
Procedure: Human miRNA-34a (SEQ ID NO: 1; […]) or miRNA-34c (SEQ ID NO: 2; […]) was purchased from Thermo Fisher Scientific. 4×10^5 HGF-independent human gastric cancer SNU638 cells were seeded and transfected with 300 nM of miRNA-34a or miRNA-34c, and then the number of cells was counted using trypan blue exclusion method for 0, 1, 2 and 3 days.
4×10^5 HGF-independent human gastric cancer SNU638 cells or 3×10^5 MKN45 cells were transfected with 300 nM of miRNA-34a (SEQ ID NO: 1) or miRNA-34c (SEQ ID NO: 2), and then the number of cells was counted using trypan blue exclusion method for 0, 1, 2 and 3 days.

IGSF1 [11] = test: Luciferase 3'UTR reporter assay in human 293 cell line, IGSF1; assay type: cell-based; conditions: wild-type vs mutated 3'UTR luciferase plasmids
[12] = tested on: relevant signaling pathway; test: Expression of the relevant signaling pathway after miRNA transfection; assay type: cell-based; conditions: human gastric cancer cell line; lower panel of FIG. 6C
IGSF1 [13] = test: IGSF1 expression after miR-34a/miR-34c or antagomir transfection, gastric cancer cells; assay type: cell-based, human
Description: (§6) Moreover, as shown in the lower panel of FIG. 6B, as a result of analyzing the expression of MET and IGSF1 after transfecting miR-34a or miR-34c into human gastric cancer cell lines MKN45 and SNU638, it was observed that the expression of IGSF1 as a marker for the induction of HGF-independent MET phosphorylation and the expression of c-MET were inhibited by miR-34a or miR-34c.

pMET = pMET expression after miRNA/antagomir transfection, lung cancer cells; assay type: cell-based, human; conditions: lung cancer cell lines HCC827 and H1944
gastric cancer cell line = test: Cell invasion after miRNA or antagomir transfection, gastric cancer cells; assay type: cell-based, human; conditions: middle panel of FIG. 6D
Procedure: […] Plate inserts (BD Biosciences) of […] pore size were placed in a 24-well plate, and each 100 μl of matrigel (BD Biosciences) was seeded on each at a concentration of 200 μg/ml and incubated in a CO2 incubator for 30 minutes. […] 400 μl of growth media (RPMI1640+10% FBS) were seeded on the bottom plate and cultured in a CO2 incubator for 24 hours. After 24 hours, the insert plate was washed with PBS, and the remaining cells were wiped with a cotton swab and fixed in 10% formalin for 20 minutes. After washing with purified water, the cells were stained with 0.01% crystal violet solution for 20 minutes and washed with warm water, and then the number of migrated cells was counted. In the case of the migration assay, the same procedure as above was carried out without coating the insert plate. The number of cells migrated through the insert plate in the control and the gastric cancer and lung cancer cell lines transfected with MET or IGSF1 siRNA was counted and verified.

MET [14] = test: MET expression after miR-34a/miR-34c or antagomir transfection, gastric cancer cells; assay type: cell-based, human; conditions: for expression of c-MET: MKN45 and SNU638, lower panel of FIG. 6B; for expression of MET: cell line SNU638, real-time PCR, upper panel of FIG. 6B
Description: as §6

MET [15] = test: Luciferase 3'UTR reporter assay in human 293 cell line, MET; assay type: cell-based; conditions: wild-type vs mutated 3'UTR luciferase plasmids
[16] = tested on: gastric cancer cell lines SNU638 and MKN45; test: Cell migration after miRNA or antagomir transfection, gastric cancer cells; assay type: cell-based, human; conditions: for migration of cells: SNU638, lower panel of FIG. 6D; for cell migration: SNU638 and MKN45, upper panel of FIG. 6D
MMP9 = MMP9 expression after miRNA transfection; assay type: cell-based, human; conditions: SNU638; lower panel of FIG. 6D
Description: Furthermore, as shown in the lower panel of FIG. 6D, the transfection of gastric cancer cell line SNU638 with mir-34a or mir-34c inhibited the migration of cells and decreased the expression of MMP9.

IGSF1 [17] = test: IGSF1 expression after miRNA transfection, lung cancer cells; assay type: cell-based, human; conditions: lung cancer cell lines HCC827 and H1944
[18] = MKN45 and SNU638, lower panel of FIG. 6B
[19] = cell line SNU638, real-time PCR, upper panel of FIG. 6B

Row | Molecule | cell growth [2] | cell growth [3] | number of colonies [5] | growth of cancer cells [10] | luciferase activity of IGSF1 (IGSF1 [11]) | expression of the relevant signaling pathway [12] | expression of IGSF1 (IGSF1 [13]; [18]) | expression of IGSF1 (IGSF1 [13]; [19]) | expression of pMET (pMET) | inhibition of the invasion of cells (gastric cancer cell line) | expression of c-MET (MET [14]) | expression of MET (MET [14]) | luciferase activity of MET (MET [15]) | migration of cells [16] | cell migration [16] | expression of MMP9 (MMP9) | expression of IGSF1 (IGSF1 [17]) | other results
1 | Cc1[nH]c(/C=C2\C(=O)Nc3ccc(S(=O)(=O)Cc4c(Cl)cccc4Cl)cc32)c(C)c1C(=O)N1CCC[C@@H]1CN1CCCC1 [PHA665752] | – | – | – | – | – | – | – | – | – | – | – | – | – | – | – | – | – | induction of apoptosis ([1]; trypan blue exclusion, treatment at each concentration): induction of apoptosis; response to the MET inhibitor ([1]; with inhibition of the expression of IGSF1): increased; expression of cleaved caspase 3 (cleaved caspase 3): increased
2 | IGSF1 shRNA: shRNA against IGSF1, SEQ ID NO: 6, 5′-CAAAGAUGGAAGUGAAAUA UCUCUAUUUCACUUCCAUCUUUGUU-3′ (CAAAGAUGGAAGUGAAAUAUCUCUAUUUCACUUCCAUCUUUGUU; siRNA; shRNA hairpin, further chemistry not given here) | inhibited | inhibited | decreased | – | – | – | – | – | – | – | – | – | – | – | – | – | – | phosphorylation of MET (phosphorylation of MET): decreased; expression of MET (MET [4]): decreased
3 | MET shRNA: shRNA against MET, SEQ ID NO: 7, 5′-GCCAGCCUGAAUGAUGACAUCUCUGUCAUCAUUCAGGCUGGCUU-3′ (siRNA; shRNA hairpin, further chemistry not given here) | inhibited | inhibited | decreased | – | – | – | – | – | – | – | – | – | – | – | – | – | – | expression of IGSF1 (IGSF1 [6]): decreased; expression of IGSF1 (IGSF1 [7]): decreased
4 | MET siRNA: siRNA against MET, SEQ ID NO: 5, 5′-AAAGATAAACCTCTCATAATG-3′ (AAAGAUAAACCUCUCAUAAUG; listed as RNA, chemistry not given here) | – | – | – | – | – | – | – | – | – | – | – | – | – | – | – | – | – | migration [8]: inhibited; invasion [9]: inhibited
5 | miR-34a: Human miRNA-34a, SEQ ID NO: 1, UGGCAGUGUCUUAGCUGGUUGU, purchased from Thermo Fisher Scientific (listed as RNA, chemistry not given here) | – | – | – | significantly inhibited | inhibited only in the wild type | decreased | inhibited | decreased | decreased | about 50% | inhibited | decreased | inhibited only in the wild type | inhibited | inhibited | decreased | decreased | –
6 | miR-34c: Human miRNA-34c, SEQ ID NO: 2, AGGCAGUGUAGUUAGCUGAUUGC, purchased from Thermo Fisher Scientific (listed as RNA, chemistry not given here) | – | – | – | significantly inhibited | inhibited only in the wild type | decreased | inhibited | decreased | decreased | about 50% | inhibited | decreased | inhibited only in the wild type | inhibited | inhibited | decreased | decreased | –
